Reference: ChEMBL document CHEMBL4800726, “Data for DCP probe MSC-4381” (2021)

Experiments:
[1] = molecular target: Monocarboxylate transporter 4 (Homo sapiens, UniProt O15427); assay: Lactate efflux inhibition assay (MDA-MB-231)
[2] = molecular target: 5-hydroxytryptamine receptor 1B (Homo sapiens) (UniProt P28222); settings: Compound concentration 10.0 uM
[3] = molecular target: 5-hydroxytryptamine receptor 1D (Homo sapiens) (UniProt P28221); settings: Compound concentration 10.0 uM
[4] = molecular target: 5-hydroxytryptamine receptor 1E (Homo sapiens, UniProt P28566); settings: Compound concentration 10.0 uM
[5] = molecular target: Mu-type opioid receptor (Homo sapiens) (UniProt P35372); settings: Compound concentration 10.0 uM
[6] = molecular target: T1, GABA-A receptor; anion channel (Rattus norvegicus) (UniProt O09028+P15431+P18506+P18508+P19969+P20236+P23574+P23576+P28471+P28473+P30191+P62813+P63079+P63138+Q91ZM7+Q9ES14); settings: Compound concentration 10.0 uM
[7] = molecular target: Histamine H3 receptor (Homo sapiens) (UniProt Q9Y5N1); settings: Compound concentration 10.0 uM
[8] = molecular target: T2, 5-hydroxytryptamine receptor 5A (Homo sapiens, UniProt P47898); assay: GPCRScan assay: inhibition of 5-HT5A; design: radioligand conc. used [nm] 2.0 - 3.3, parental cells Flp-In CHO
[9] = molecular target: Beta-1 adrenergic receptor (Homo sapiens) (UniProt P08588); assay: Beta1 (h) Eurofins-Cerep binding assay; design: ligand concentration 0.3 nM; settings: filed as agonist, Compound concentration 10.0 uM
[10] = molecular target: Beta-2 adrenergic receptor (Homo sapiens) (UniProt P07550); assay: Beta2 (h) Eurofins-Cerep binding assay; settings: filed as antagonist, Compound concentration 10.0 uM
[11] = molecular target: T1, GABA-A receptor; anion channel (Rattus norvegicus); assay: BZD (central) Eurofins-Cerep binding assay; type: protein-complex assay; design: ligand concentration 0.4 nM; settings: filed as agonist, Compound concentration 10.0 uM
[12] = molecular target: Cannabinoid receptor 1 (Homo sapiens) (UniProt P21554); assay: CB1 (h) Eurofins-Cerep binding assay; design: ligand concentration 0.5 nM; settings: filed as agonist, Compound concentration 10.0 uM
[13] = molecular target: D(2) dopamine receptor (Homo sapiens) (UniProt P14416); assay: D2S (h) Eurofins-Cerep binding assay; design: ligand concentration 0.3 nM; settings: filed as antagonist, Compound concentration 10.0 uM
[14] = molecular target: C-X-C chemokine receptor type 2 (Homo sapiens) (UniProt P25025); assay: CXCR2 (IL-8B) (h) Eurofins-Cerep binding assay; design: ligand concentration 0.025 nM; settings: filed as agonist, Compound concentration 10.0 uM
[15] = molecular target: Histamine H1 receptor (Homo sapiens) (UniProt P35367); assay: H1 (h) Eurofins-Cerep binding assay; design: ligand concentration 1 nM; settings: filed as antagonist, Compound concentration 10.0 uM
[16] = molecular target: Melanocortin receptor 4 (Homo sapiens) (UniProt P32245); assay: MC4 (h) Eurofins-Cerep binding assay; design: ligand concentration 0.05 nM; settings: filed as agonist, Compound concentration 10.0 uM
[17] = molecular target: T3, Muscarinic acetylcholine receptor M2 (Homo sapiens) (UniProt P08172); assay: M2 (h) Eurofins-Cerep binding assay; design: ligand concentration 2 nM; settings: filed as antagonist, Compound concentration 10.0 uM
T3 sequence (whole entry): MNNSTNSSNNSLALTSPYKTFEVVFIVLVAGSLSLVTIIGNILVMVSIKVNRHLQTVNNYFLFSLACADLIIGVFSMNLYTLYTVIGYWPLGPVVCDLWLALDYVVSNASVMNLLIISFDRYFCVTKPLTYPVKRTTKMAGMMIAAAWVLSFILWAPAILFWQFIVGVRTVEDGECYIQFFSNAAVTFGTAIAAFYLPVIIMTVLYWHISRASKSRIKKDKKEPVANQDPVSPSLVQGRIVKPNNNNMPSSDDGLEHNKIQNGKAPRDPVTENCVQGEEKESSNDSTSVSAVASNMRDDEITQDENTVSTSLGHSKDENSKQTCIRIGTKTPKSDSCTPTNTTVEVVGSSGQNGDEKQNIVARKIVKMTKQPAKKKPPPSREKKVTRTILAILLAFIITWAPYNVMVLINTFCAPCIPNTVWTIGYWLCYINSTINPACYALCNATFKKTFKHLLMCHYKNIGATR

[18] = molecular target: Muscarinic acetylcholine receptor M3 (Homo sapiens) (UniProt P20309); assay: M3 (h) Eurofins-Cerep binding assay; design: ligand concentration 0.2 nM; settings: filed as antagonist, Compound concentration 10.0 uM
[19] = molecular target: Substance-K receptor (Homo sapiens) (UniProt P21452); assay: NK2 (h) Eurofins-Cerep binding assay; design: ligand concentration 0.1 nM; settings: filed as agonist, Compound concentration 10.0 uM
[20] = molecular target: Neuromedin-K receptor (Homo sapiens) (UniProt P29371); assay: NK3 (h) Eurofins-Cerep binding assay; design: ligand concentration 0.4 nM; settings: filed as antagonist, Compound concentration 10.0 uM
[21] = molecular target: Neuropeptide Y receptor type 2 (Homo sapiens) (UniProt P49146); assay: Y2 (h) Eurofins-Cerep binding assay; design: ligand concentration 0.015 nM; settings: filed as agonist, Compound concentration 10.0 uM
[22] = molecular target: Delta-type opioid receptor (Homo sapiens, UniProt P41143); assay: delta (DOP) (h) Eurofins-Cerep binding assay; design: ligand concentration 0.5 nM; settings: filed as agonist, Compound concentration 10.0 uM
[23] = molecular target: T4, 5-hydroxytryptamine receptor 1A (Homo sapiens) (UniProt P08908); assay: 5-HT1A (h) Eurofins-Cerep binding assay; design: ligand concentration 0.5 nM; settings: filed as agonist, Compound concentration 10.0 uM
T4 sequence (whole entry): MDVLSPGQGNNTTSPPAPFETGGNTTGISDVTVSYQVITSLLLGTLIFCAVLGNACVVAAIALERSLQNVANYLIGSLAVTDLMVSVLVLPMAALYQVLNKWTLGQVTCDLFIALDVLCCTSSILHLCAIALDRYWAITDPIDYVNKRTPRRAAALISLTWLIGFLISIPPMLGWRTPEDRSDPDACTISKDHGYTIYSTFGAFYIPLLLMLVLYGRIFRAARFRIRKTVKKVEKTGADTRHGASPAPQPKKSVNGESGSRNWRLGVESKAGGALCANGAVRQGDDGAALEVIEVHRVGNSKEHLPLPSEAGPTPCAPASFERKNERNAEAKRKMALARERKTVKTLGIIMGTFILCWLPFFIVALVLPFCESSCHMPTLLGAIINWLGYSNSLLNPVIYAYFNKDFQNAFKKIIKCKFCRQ

[24] = molecular target: T2, 5-hydroxytryptamine receptor 5A; assay: 5-HT5a (h) Eurofins-Cerep binding assay; design: ligand concentration 1.5 nM; settings: filed as agonist, Compound concentration 10.0 uM
[25] = molecular target: 5-hydroxytryptamine receptor 7 (Homo sapiens) (UniProt P34969); assay: 5-HT7 (h) Eurofins-Cerep binding assay; design: ligand concentration 4 nM; settings: filed as agonist, Compound concentration 10.0 uM
[26] = molecular target: Somatostatin receptor (Mus musculus) (UniProt P30935+O08858+P30875+P30873+P49660); assay: sst (non-selective) Eurofins-Cerep binding assay; type: protein assay; design: ligand concentration 0.05 nM; settings: filed as agonist, Compound concentration 10.0 uM
[27] = molecular target: L-type Ca2+ channel (diltiazem site, benzothiazepines) (Rattus norvegicus, UniProt P22002+P27732+Q02485); assay: Ca2+ channel (L, diltiazem site) (benzothiazepines) Eurofins-Cerep binding assay; type: protein assay; design: incubation time 120 min, incubation temperature RT, ligand concentration 15 nM; settings: rat cerebral cortex, probe [3H]diltiazem, compound concentration 10 uM, read-out: % Inhibition of Control Specific Binding (Mean n=2)
[28] = molecular target: Sodium-dependent serotonin transporter (Homo sapiens) (UniProt P31645); assay: 5-HT transporter (h) Eurofins-Cerep binding assay; design: ligand concentration 2 nM; settings: filed as antagonist, Compound concentration 10.0 uM
[29] = molecular target: Vasopressin V1a receptor (Homo sapiens) (UniProt P37288); assay: V1a (h) Eurofins-Cerep Cellular and Nuclear Receptor Functional Assays; settings: Compound concentration 10.0 uM
[30] = molecular target: D(1B) dopamine receptor (Homo sapiens) (UniProt P21918); settings: Compound concentration 10.0 uM
[31] = molecular target: Histamine H2 receptor (Homo sapiens) (UniProt P25021); settings: Compound concentration 10.0 uM

T2 sequence (P47898 whole entry): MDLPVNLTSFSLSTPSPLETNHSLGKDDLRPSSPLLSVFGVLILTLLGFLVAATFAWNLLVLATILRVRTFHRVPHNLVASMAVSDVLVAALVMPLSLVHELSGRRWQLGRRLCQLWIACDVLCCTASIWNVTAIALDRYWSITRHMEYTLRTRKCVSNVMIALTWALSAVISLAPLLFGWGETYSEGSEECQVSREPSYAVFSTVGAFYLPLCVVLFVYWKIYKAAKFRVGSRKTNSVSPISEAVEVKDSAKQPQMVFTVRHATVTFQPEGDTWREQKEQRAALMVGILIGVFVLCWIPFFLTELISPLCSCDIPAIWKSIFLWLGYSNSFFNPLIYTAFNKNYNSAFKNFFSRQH
Chain of Vasopressin V1a receptor (Homo sapiens) (P37288 whole entry, looked up): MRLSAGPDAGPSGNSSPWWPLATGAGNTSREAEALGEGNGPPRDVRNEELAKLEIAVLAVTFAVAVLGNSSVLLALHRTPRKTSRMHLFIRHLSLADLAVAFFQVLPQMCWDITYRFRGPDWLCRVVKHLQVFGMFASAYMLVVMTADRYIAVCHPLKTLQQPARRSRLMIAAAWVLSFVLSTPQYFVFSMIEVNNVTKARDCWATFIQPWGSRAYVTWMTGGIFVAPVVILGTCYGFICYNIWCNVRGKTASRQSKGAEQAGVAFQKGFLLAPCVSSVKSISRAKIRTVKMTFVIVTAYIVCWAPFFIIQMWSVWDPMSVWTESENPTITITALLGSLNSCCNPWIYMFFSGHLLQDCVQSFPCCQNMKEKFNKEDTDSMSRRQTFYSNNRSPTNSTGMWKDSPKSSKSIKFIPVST
Chain of Sodium-dependent serotonin transporter (Homo sapiens) (P31645 whole entry, looked up): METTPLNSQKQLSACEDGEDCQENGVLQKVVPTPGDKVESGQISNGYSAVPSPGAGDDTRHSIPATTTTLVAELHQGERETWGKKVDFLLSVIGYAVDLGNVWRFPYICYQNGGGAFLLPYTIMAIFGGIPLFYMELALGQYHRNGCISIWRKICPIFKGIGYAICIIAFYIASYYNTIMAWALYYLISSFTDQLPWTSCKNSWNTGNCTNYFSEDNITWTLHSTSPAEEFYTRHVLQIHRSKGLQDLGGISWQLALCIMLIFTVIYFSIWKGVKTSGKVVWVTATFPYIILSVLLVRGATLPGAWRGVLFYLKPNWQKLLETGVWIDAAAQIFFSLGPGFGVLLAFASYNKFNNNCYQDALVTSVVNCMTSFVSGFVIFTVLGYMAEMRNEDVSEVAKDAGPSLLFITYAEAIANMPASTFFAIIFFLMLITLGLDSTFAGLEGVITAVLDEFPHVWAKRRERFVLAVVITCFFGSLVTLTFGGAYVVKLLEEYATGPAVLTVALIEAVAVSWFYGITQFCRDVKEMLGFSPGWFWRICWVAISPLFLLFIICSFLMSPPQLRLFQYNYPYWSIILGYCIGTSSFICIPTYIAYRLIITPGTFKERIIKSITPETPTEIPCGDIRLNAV
Chain of Delta-type opioid receptor (P41143 whole entry): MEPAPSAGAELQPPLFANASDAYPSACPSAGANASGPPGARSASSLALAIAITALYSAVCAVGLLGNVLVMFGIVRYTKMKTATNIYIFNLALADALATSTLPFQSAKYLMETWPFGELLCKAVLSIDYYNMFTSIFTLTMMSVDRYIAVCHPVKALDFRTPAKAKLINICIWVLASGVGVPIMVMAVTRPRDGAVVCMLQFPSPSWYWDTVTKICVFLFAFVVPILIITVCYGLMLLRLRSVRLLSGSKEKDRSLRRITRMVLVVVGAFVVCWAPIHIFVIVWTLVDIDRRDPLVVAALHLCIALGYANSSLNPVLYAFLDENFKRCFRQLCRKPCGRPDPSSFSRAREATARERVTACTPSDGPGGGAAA
Chain of C-X-C chemokine receptor type 2 (Homo sapiens) (P25025 whole entry): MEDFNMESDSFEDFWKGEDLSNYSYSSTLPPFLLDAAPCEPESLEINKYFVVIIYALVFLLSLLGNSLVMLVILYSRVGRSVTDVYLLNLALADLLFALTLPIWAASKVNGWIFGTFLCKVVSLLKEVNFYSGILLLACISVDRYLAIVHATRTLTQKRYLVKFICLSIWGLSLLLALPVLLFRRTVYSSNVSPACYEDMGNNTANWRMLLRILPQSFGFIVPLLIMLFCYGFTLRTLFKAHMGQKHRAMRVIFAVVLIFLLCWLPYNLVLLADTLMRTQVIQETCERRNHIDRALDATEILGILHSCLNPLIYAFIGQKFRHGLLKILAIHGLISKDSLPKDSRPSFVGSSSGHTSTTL
Chain of 5-hydroxytryptamine receptor 1D (Homo sapiens) (P28221 whole entry): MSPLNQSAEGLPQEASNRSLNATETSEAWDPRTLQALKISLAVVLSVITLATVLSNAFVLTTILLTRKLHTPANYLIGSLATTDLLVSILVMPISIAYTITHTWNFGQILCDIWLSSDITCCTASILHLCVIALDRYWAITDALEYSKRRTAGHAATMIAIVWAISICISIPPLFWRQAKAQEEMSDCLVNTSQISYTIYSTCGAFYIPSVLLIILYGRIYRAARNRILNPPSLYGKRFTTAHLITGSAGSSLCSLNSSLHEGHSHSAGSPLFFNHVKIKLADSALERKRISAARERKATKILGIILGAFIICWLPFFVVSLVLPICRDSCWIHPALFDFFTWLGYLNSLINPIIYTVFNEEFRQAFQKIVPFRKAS
Chain of Beta-2 adrenergic receptor (Homo sapiens) (P07550 whole entry, looked up): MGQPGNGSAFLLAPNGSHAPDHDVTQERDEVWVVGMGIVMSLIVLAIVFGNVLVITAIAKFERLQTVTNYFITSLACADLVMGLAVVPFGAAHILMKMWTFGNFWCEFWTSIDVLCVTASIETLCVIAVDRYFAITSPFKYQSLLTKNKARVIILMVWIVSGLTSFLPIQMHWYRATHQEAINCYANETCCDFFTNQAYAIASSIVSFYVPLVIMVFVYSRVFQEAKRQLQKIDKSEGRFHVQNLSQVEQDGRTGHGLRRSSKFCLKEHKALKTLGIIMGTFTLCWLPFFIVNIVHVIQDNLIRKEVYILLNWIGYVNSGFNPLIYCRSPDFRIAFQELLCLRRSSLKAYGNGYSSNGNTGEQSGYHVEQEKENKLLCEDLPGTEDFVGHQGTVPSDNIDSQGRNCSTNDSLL
Chain of Somatostatin receptor (Mus musculus) (P30935 whole entry): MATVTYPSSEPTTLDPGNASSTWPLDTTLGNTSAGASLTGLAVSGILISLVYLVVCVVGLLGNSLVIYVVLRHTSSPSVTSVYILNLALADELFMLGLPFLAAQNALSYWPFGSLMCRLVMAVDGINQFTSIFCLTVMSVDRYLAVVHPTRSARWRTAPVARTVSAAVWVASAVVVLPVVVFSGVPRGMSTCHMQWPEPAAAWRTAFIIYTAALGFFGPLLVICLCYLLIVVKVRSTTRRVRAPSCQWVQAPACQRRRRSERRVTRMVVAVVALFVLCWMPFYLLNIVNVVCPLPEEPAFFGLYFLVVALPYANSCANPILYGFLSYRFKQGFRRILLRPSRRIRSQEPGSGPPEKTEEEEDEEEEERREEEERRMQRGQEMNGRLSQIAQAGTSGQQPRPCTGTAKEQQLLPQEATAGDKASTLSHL
Chain of Somatostatin receptor (Mus musculus) (O08858 whole entry): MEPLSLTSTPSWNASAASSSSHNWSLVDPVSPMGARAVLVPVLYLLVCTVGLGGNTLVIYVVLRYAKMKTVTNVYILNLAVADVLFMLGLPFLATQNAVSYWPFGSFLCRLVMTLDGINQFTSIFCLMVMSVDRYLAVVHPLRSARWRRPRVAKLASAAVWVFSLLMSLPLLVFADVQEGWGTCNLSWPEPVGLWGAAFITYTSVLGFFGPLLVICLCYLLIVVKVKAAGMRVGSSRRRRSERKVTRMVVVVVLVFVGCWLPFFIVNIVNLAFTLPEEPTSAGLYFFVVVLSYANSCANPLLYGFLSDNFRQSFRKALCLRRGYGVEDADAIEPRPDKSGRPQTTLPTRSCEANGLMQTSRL
Chain of Somatostatin receptor (Mus musculus) (P30875 whole entry): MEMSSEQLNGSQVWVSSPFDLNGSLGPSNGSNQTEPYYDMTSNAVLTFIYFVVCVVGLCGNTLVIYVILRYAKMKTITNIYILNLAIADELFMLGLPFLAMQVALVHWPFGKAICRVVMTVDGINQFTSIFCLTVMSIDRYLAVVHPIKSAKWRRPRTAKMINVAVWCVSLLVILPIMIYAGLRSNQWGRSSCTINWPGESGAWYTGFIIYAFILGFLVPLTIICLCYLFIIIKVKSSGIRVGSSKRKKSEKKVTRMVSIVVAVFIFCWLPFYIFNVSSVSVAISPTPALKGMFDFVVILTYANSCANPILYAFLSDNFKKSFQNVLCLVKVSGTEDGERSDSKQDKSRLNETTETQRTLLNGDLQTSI
Chain of Somatostatin receptor (Mus musculus) (P30873 whole entry): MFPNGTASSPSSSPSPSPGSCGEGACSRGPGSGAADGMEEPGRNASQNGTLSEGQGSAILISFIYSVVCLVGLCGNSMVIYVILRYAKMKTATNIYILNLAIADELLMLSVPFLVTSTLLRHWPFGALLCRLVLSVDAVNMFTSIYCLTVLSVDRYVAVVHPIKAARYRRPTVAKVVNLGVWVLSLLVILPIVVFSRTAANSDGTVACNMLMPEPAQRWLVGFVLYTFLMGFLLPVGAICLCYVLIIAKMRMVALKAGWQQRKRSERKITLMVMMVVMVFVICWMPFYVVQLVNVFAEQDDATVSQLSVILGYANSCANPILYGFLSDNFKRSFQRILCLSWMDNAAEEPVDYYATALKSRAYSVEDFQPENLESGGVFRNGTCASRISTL
Chain of Somatostatin receptor (Mus musculus) (P49660 with tags, fused parts or gaps): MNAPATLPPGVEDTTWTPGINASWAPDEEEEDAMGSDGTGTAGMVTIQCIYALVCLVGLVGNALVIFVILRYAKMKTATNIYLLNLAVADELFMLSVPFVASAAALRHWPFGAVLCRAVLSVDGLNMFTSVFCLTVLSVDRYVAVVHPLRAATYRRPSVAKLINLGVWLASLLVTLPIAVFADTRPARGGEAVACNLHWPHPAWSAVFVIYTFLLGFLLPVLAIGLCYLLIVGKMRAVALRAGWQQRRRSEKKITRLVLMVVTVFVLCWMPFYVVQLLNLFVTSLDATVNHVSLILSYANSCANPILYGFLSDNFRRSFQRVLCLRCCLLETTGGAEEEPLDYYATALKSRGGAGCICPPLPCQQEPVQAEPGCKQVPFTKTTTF

COc1cc(C(=O)O)ncc1C#Cc1ccccc1NS(=O)(=O)c1cccc2c(N(C)C)ccnc12 [MSC-0516]
IC50 [1]: 506 nM (not active)
inhibition [2]: 10.6%
inhibition [3]: 11.4%
inhibition [4]: 20.6%
inhibition [5]: 35.4%
inhibition [6]: 19.4%
inhibition [7]: 6.76%

CCOc1ccc(S(=O)(=O)Nc2ccc(Cl)cc2C#Cc2cnc(C(=O)O)cc2OC)c2ncccc12 [MSC-4381]
Ki [8]: 1630 nM
% Inhibition of Control Specific Binding (Mean n=2) [9]: 17.4%
% Inhibition of Control Specific Binding (Mean n=2) [10]: -3.7%
% Inhibition of Control Specific Binding (Mean n=2) [11]: -7.6%
% Inhibition of Control Specific Binding (Mean n=2) [12]: -11.3%
% Inhibition of Control Specific Binding (Mean n=2) [13]: 9.2%
% Inhibition of Control Specific Binding (Mean n=2) [14]: 7.3%
% Inhibition of Control Specific Binding (Mean n=2) [15]: 27.6%
% Inhibition of Control Specific Binding (Mean n=2) [16]: -8%
% Inhibition of Control Specific Binding (Mean n=2) [17]: 35.8%
% Inhibition of Control Specific Binding (Mean n=2) [18]: 8%
% Inhibition of Control Specific Binding (Mean n=2) [19]: 46%
% Inhibition of Control Specific Binding (Mean n=2) [20]: -8.7%
% Inhibition of Control Specific Binding (Mean n=2) [21]: 8%
% Inhibition of Control Specific Binding (Mean n=2) [22]: 11.7%
% Inhibition of Control Specific Binding (Mean n=2) [23]: -58.9%
% Inhibition of Control Specific Binding (Mean n=2) [24]: -20.7%
% Inhibition of Control Specific Binding (Mean n=2) [25]: -6.6%
% Inhibition of Control Specific Binding (Mean n=2) [26]: -21.6%
inhibition at 120 min, 10 µM [27]: -8.8%
% Inhibition of Control Specific Binding (Mean n=2) [28]: 2.4%
% Inhibition of Control Agonist Response (Mean n=2) [29]: 34.9%
% of Control Agonist Response (Mean n=2) [29]: -3.1%
inhibition [30]: 47.7%
inhibition [31]: 24.2%
